Measurements taken from patent US8933232B2, “1,3,4-oxadiazole and 1,3,4-thiadiazole beta-lactamase inhibitors” (priority 2012, dated 2015).
Where a name gives a salt, the structure may show the parent alone.

Each compound was assayed on bacterial strains that express KPC β-lactamases (assay: Synergy MIC / standard BLI potentiation MIC assay against strains expressing KPC β-lactamases). Settings: in the presence of a β-lactam; comparator Avibactam.
Type: cell-based
Method: The experimental protocol was performed according to Clinical and Laboratory Standards Institute (CLSI) guidelines with modifications as described below (CLSI guidelines can be derived from the CLSI document M07-A9 published in January 2012: “Methods for Dilution Antimicrobial Susceptibility Tests for Bacteria That Grow Aerobically; Approved Standard-Ninth Edition”).
To prepare for MIC testing, frozen glycerol stocks of clinical isolates (Klebsiella pneumoniae, Eschericia coli, Enterobacter spp, Citrobacter spp, or Pseudomonas aeruginosa) were used to streak for isolated colonies on rich, non-selective, tryptic soy agar containing 5% sheep's blood (TSAB). Frozen glycerol stocks of laboratory engineered, isogenic E. coli strains, which contain cloned β-lactamase expressing plasmids were used to streak for isolated colonies on rich, selective LB agar supplemented with 25 μg/mL tetracycline to maintain the plasmid. All strains were incubated at 37° C. for 18-24 hrs.
On the day of testing, primary cultures were started by scraping off 5-10 colonies from the TSAB plates containing clinical strains or the tetracycline supplemented LB plates containing engineered strains. The clinical strain material was suspended in ˜5 mL of cation adjusted Mueller Hinton Broth (CAMHB) in 14 mL culture tubes. The engineered strain material was suspended in CAMHB (supplemented with 25 μg/mL tetracycline) in 14 mL culture tubes. All strains were incubated at 37° C. with aeration (200 rpm) for ˜2 hrs until the optical density at 600 nm (OD600) was >0.1.
The two compound components of the assay were each diluted in CAMHB and added to the 96-well broth microdilution assay plates. 50 μL of the β-lactam was added to each well of the assay plate in 2-fold dilutions with final concentrations ranging from 128 to 0.13 μg/mL. 25 μL, of the BLI compound was added to all wells in the broth microdilution plates at a final concentration of 4 μg/mL. Inoculum cultures were prepared by standardizing the primary cultures to OD600=0.1 and then adding 20 μL of the adjusted primary culture per 1 mL CAMHB for clinical strains or CAMHB (supplemented with tetracycline at 100 μg/mL) for engineered strains, so that the final inoculum density was ˜10^5 colony forming units per milliliter. Diluted inoculum cultures were used to inoculate 25 μl, per well in 96-well broth microdilution assay plates. The final volume of each well was 100 μL and contained a β-lactam at different concentrations, a BLIcompound at 4 μg/mL concentration, the bacterial culture at an OD600 of approximately 0.001 and when necessary tetracycline at 25 μg/mL.
Plates were incubated for 18-20 hours at 37° C. with aeration (200 rpm). Following incubation, growth was confirmed visually placing plates over a viewing apparatus (stand with a mirror underneath) and then OD600 was measured using a SpectraMax 340PC384 plate reader (Molecular Devices, Sunnyvale, Calif.). Growth was defined as turbidity that could be detected with the naked eye or achieving minimum OD600 of 0.1. MIC values were defined as the lowest concentration producing no visible turbidity.
The synergy MIC (sMIC) assay determines the concentration of the BLI required to potentiate the activity of a fixed concentration of a β-lactam antibiotic against β-lactamase producing bacterial strains. The experimental protocol was performed according to Clinical and Laboratory Standards Institute (CLSI) guidelines with modifications as described below (CLSI guidelines can be derived from the CLSI document M07-A9 published in January 2012: “Methods for Dilution Antimicrobial Susceptibility Tests for Bacteria That Grow Aerobically; Approved Standard-Ninth Edition”). […]

Compound	more active than Avibactam for at least one bacterial strain that expresses KPC β-lactamase and/or better spectrum of activity against KPC strains
N=C(N)NC[C@H](O)c1nnc([C@@H]2CC[C@@H]3CN2C(=O)N3OS(=O)(=O)O)o1 [Compound 732, (2S,5R)-2-(5-((S)-2-guanidino-1-hydroxyethyl)-1,3,4-oxadiazol-2-yl)-7-oxo-1,6-diazabicyclo[3.2.1]octan-6-yl hydrogen sulfate]	more active than Avibactam
CNCCCc1nnc([C@@H]2CC[C@@H]3CN2C(=O)N3OS(=O)(=O)O)o1 [Compound 734, 2S,5R)-2-(5-(3-(methylamino)propyl)-1,3,4-oxadiazol-2-yl)-7-oxo-1,6-diazabicyclo[3.2.1]octan-6-yl hydrogen sulfate]	more active than Avibactam
NCCCCc1nnc([C@@H]2CC[C@@H]3CN2C(=O)N3OS(=O)(=O)O)o1 [Compound 735, (2S,5R)-2-(5-(4-aminobutyl)-1,3,4-oxadiazol-2-yl)-7-oxo-1,6-diazabicyclo[3.2.1]octan-6-yl hydrogen sulfate]	more active than Avibactam
O=C1N2C[C@@H](CC[C@H]2c2nnc(CCNCCO)o2)N1OS(=O)(=O)O [Compound 736, (2S,5R)-2-(5-(2-((2-hydroxyethyl)amino)ethyl)-1,3,4-oxadiazol-2-yl)-7-oxo-1,6-diazabicyclo[3.2.1]octan-6-yl hydrogen sulfate]	more active than Avibactam
CC(C)(N)Cc1nnc([C@@H]2CC[C@@H]3CN2C(=O)N3OS(=O)(=O)O)o1 [Compound 737, (2S,5R)-2-(5-(2-amino-2-methylpropyl)-1,3,4-oxadiazol-2-yl)-7-oxo-1,6-diazabicyclo[3.2.1]octan-6-yl hydrogen sulfate]	more active than Avibactam
N=C(N)Nc1nnc([C@@H]2CC[C@@H]3CN2C(=O)N3OS(=O)(=O)O)o1 [Compound 738, (2S,5R)-2-(5-guanidino-1,3,4-oxadiazol-2-yl)-7-oxo-1,6-diazabicyclo[3.2.1]octan-6-yl hydrogen sulfate]	more active than Avibactam
N=C(N)NC1(Cc2nnc([C@@H]3CC[C@@H]4CN3C(=O)N4OS(=O)(=O)O)o2)CC1 [Compound 739, (2S,5R)-2-(5-((1-guanidinocyclopropyl)methyl)-1,3,4-oxadiazol-2-yl)-7-oxo-1,6-diazabicyclo[3.2.1]octan-6-yl hydrogen sulfate]	more active than Avibactam
O=C1N2C[C@@H](CC[C@H]2c2nnc([C@H]3[C@@H]4CNC[C@@H]43)o2)N1OS(=O)(=O)O [Compound 740, (2S,5R)-2-(5-(3-azabicyclo[3.1.0]hexan-6-yl)-1,3,4-oxadiazol-2-yl)-7-oxo-1,6-diazabicyclo[3.2.1]octan-6-yl hydrogen sulfate]	more active than Avibactam
N=C(N)N1CC(Cc2nnc([C@@H]3CC[C@@H]4CN3C(=O)N4OS(=O)(=O)O)o2)C1 [Compound 741, (2S,5R)-2-(5-((1-carbamimidoylazetidin-3-yl)methyl)-1,3,4-oxadiazol-2-yl)-7-oxo-1,6-diazabicyclo[3.2.1]octan-6-yl hydrogen sulfate]	more active than Avibactam
O=C1N2C[C@@H](CC[C@H]2c2nnc(CCC3CNC3)o2)N1OS(=O)(=O)O [Compound 742, (2S,5R)-2-(5-(2-(azetidin-3-yl)ethyl)-1,3,4-oxadiazol-2-yl)-7-oxo-1,6-diazabicyclo[3.2.1]octan-6-yl hydrogen sulfate]	more active than Avibactam
